Test results reported in patent US12590134B2, “GLP-1 agonist polypeptide compound and salt thereof, synthesis method therefor and use thereof” (Sinopep-Allsino Biopharmaceutical Co., Ltd., priority 2020, dated 2026).
Numbered stars: 1 amine (or outer) side, 2 acyl side, 3 side chain; on linkers, the order of the positions; unused ones are H or OH. Square brackets hold non-standard residues; d marks the D form. Side chains are listed from the residue outwards. Peptide text beside a SMILES is read from it. * marks the point of attachment. C18 diacid = O=C(O)CCCCCCCCCCCCCCCCC(=O)*; γGlu = O=C(O)[C@H](CCC(=O)[*:2])N[*:1]; Ac4c(3-oxa) = NC1(C(=O)O)COC1; dNle = CCCC[C@@H](N)C(=O)O; dAbu = CC[C@@H](N)C(=O)O; Abu = CC[C@H](N)C(=O)O; AEEA = NCCOCCOCC(=O)O

Molecular target: human GLP-1R (Homo sapiens, UniProt P43220)
Assay: cAMP signal analysis of GLP-1R (GLP-1 receptor agonist activity)
Assay type: cell-based
Settings: CHO cell line stably expressing human GLP-1R; downstream cAMP signal, LANCE cAMP kit; read-out: GLP-1R EC50
Description: A wild human GLP-1R (NM_002062.5) was subjected to transient transfection and screened for two weeks by 600 μg/ml of hygromycin-B to obtain a cell line which was recombined and integrated into an FlpInCHO (Invitrogen) cell stable expression system. The culture condition of the FlpInCHO cell was as follows: 10% of heat-inactivated fetal calf serum was added to a DMEM culture solution, and the culture was performed in a 5% carbon dioxide cell incubator.
In the test, an LANCE cAMP detection kit was used for measuring the cAMP signal intensity.

human GLP-1R, sequence (P43220 24-463): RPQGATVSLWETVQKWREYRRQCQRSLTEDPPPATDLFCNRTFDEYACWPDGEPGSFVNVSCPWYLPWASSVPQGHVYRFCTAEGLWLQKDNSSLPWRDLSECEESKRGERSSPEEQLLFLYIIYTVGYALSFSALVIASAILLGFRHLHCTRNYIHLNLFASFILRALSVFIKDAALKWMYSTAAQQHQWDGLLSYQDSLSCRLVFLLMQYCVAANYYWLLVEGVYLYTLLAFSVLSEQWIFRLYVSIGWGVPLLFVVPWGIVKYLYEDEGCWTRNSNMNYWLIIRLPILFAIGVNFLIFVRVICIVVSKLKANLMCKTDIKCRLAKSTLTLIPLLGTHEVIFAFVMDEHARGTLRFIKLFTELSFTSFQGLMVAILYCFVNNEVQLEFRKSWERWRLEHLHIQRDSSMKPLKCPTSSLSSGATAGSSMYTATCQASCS

EC50 | Compound
0.675 ± 0.067 nM | CC[C@@H](NC(=O)[C@H](CCC(=O)O)NC(=O)[C@H](CC(C)C)NC(=O)[C@H](Cc1ccc(O)cc1)NC(=O)[C@H](CO)NC(=O)[C@H](CO)NC(=O)[C@@H](NC(=O)[C@H](CC(=O)O)NC(=O)[C@H](CO)NC(=O)[C@@H](NC(=O)[C@H](Cc1ccccc1)NC(=O)[C@@H](NC(=O)CNC(=O)[C@H](CCC(=O)O)NC(=O)[C@@H](CC)NC(=O)[C@@H](N)Cc1c[nH]cn1)[C@@H](C)O)[C@@H](C)O)C(C)C)C(=O)N[C@@H](CCC(N)=O)C(=O)N[C@@H](C)C(=O)N[C@@H](C)C(=O)N[C@@H](CCCCNC(=O)COCCOCCNC(=O)COCCOCCNC(=O)CC[C@H](NC(=O)CCCCCCCCCCCCCCCCC(=O)O)C(=O)O)C(=O)N[C@@H](CCC(=O)O)C(=O)N[C@@H](Cc1ccccc1)C(=O)N[C@H](C(=O)N[C@@H](C)C(=O)N[C@@H](Cc1c[nH]c2ccccc12)C(=O)N[C@@H](CC(C)C)C(=O)N[C@H](C(=O)N[C@@H](CCCNC(=N)N)C(=O)NCC(=O)N[C@@H](CCCNC(=N)N)C(=O)NCC(=O)O)C(C)C)[C@@H](C)CC [NO: 9] (H-H[dAbu]EGTFTSDVSSYLE[dAbu]QAAK([AEEA-AEEA-γGlu-C18 diacid])EFIAWLVRGRG-OH)
8.1 ± 0.507 nM | CCSC[C@@H](NC(=O)[C@H](CCC(=O)O)NC(=O)[C@H](CC(C)C)NC(=O)[C@H](Cc1ccc(O)cc1)NC(=O)[C@H](CO)NC(=O)[C@H](CO)NC(=O)[C@@H](NC(=O)[C@H](CC(=O)O)NC(=O)[C@H](CO)NC(=O)[C@@H](NC(=O)[C@H](Cc1ccccc1)NC(=O)[C@@H](NC(=O)CNC(=O)[C@H](CCC(=O)O)NC(=O)[C@@H](CSCC)NC(=O)[C@@H](N)Cc1c[nH]cn1)[C@@H](C)O)[C@@H](C)O)C(C)C)C(=O)N[C@@H](CCC(N)=O)C(=O)N[C@@H](C)C(=O)N[C@@H](C)C(=O)N[C@@H](CCCCNC(=O)COCCOCCNC(=O)COCCOCCNC(=O)CC[C@H](NC(=O)CCCCCCCCCCCCCCCCC(=O)O)C(=O)O)C(=O)N[C@@H](CCC(=O)O)C(=O)N[C@@H](Cc1ccccc1)C(=O)N[C@H](C(=O)N[C@@H](C)C(=O)N[C@@H](Cc1c[nH]c2ccccc12)C(=O)N[C@@H](CC(C)C)C(=O)N[C@H](C(=O)N[C@@H](CCCNC(=N)N)C(=O)NCC(=O)N[C@@H](CCCNC(=N)N)C(=O)NCC(=O)O)C(C)C)[C@@H](C)CC [NO: 11] (H-H[dC](Et)EGTFTSDVSSYLE[dC](Et)QAAK([AEEA-AEEA-γGlu-C18 diacid])EFIAWLVRGRG-OH)
5.59 ± 0.575 nM | CCCC[C@@H](NC(=O)[C@H](CCC(=O)O)NC(=O)[C@H](CC(C)C)NC(=O)[C@H](Cc1ccc(O)cc1)NC(=O)[C@H](CO)NC(=O)[C@H](CO)NC(=O)[C@@H](NC(=O)[C@H](CC(=O)O)NC(=O)[C@H](CO)NC(=O)[C@@H](NC(=O)[C@H](Cc1ccccc1)NC(=O)[C@@H](NC(=O)CNC(=O)[C@H](CCC(=O)O)NC(=O)[C@@H](CCCC)NC(=O)[C@@H](N)Cc1c[nH]cn1)[C@@H](C)O)[C@@H](C)O)C(C)C)C(=O)N[C@@H](CCC(N)=O)C(=O)N[C@@H](C)C(=O)N[C@@H](C)C(=O)N[C@@H](CCCCNC(=O)COCCOCCNC(=O)COCCOCCNC(=O)CC[C@H](NC(=O)CCCCCCCCCCCCCCCCC(=O)O)C(=O)O)C(=O)N[C@@H](CCC(=O)O)C(=O)N[C@@H](Cc1ccccc1)C(=O)N[C@H](C(=O)N[C@@H](C)C(=O)N[C@@H](Cc1c[nH]c2ccccc12)C(=O)N[C@@H](CC(C)C)C(=O)N[C@H](C(=O)N[C@@H](CCCNC(=N)N)C(=O)NCC(=O)N[C@@H](CCCNC(=N)N)C(=O)NCC(=O)O)C(C)C)[C@@H](C)CC [NO: 13] (H-H[dNle]EGTFTSDVSSYLE[dNle]QAAK([AEEA-AEEA-γGlu-C18 diacid])EFIAWLVRGRG-OH)

More lines, now with the values behind:

Compound | EC50
CC[C@H](C)[C@H](NC(=O)[C@H](Cc1ccccc1)NC(=O)[C@H](CCC(=O)O)NC(=O)[C@H](CCCCNC(=O)COCCOCCNC(=O)COCCOCCNC(=O)CC[C@H](NC(=O)CCCCCCCCCCCCCCCCC(=O)O)C(=O)O)NC(=O)[C@H](C)NC(=O)[C@H](C)NC(=O)[C@H](CCC(N)=O)NC(=O)[C@@](C)(CC)NC(=O)[C@H](CCC(=O)O)NC(=O)[C@H](CC(C)C)NC(=O)[C@H](Cc1ccc(O)cc1)NC(=O)[C@H](CO)NC(=O)[C@H](CO)NC(=O)[C@@H](NC(=O)[C@H](CC(=O)O)NC(=O)[C@H](CO)NC(=O)[C@@H](NC(=O)[C@H](Cc1ccccc1)NC(=O)[C@@H](NC(=O)CNC(=O)[C@H](CCC(=O)O)NC(=O)[C@@](C)(CC)NC(=O)[C@@H](N)Cc1c[nH]cn1)[C@@H](C)O)[C@@H](C)O)C(C)C)C(=O)N[C@@H](C)C(=O)N[C@@H](Cc1c[nH]c2ccccc12)C(=O)N[C@@H](CC(C)C)C(=O)N[C@H](C(=O)N[C@@H](CCCNC(=N)N)C(=O)NCC(=O)N[C@@H](CCCNC(=N)N)C(=O)NCC(=O)O)C(C)C [NO: 1] | 91.7 ± 9.69 nM
CC[C@H](C)[C@H](NC(=O)[C@H](Cc1ccccc1)NC(=O)[C@H](CCC(=O)O)NC(=O)[C@H](CCCCNC(=O)COCCOCCNC(=O)COCCOCCNC(=O)CC[C@H](NC(=O)CCCCCCCCCCCCCCCCC(=O)O)C(=O)O)NC(=O)[C@H](C)NC(=O)[C@H](C)NC(=O)[C@H](CCC(N)=O)NC(=O)C1(NC(=O)[C@H](CCC(=O)O)NC(=O)[C@H](CC(C)C)NC(=O)[C@H](Cc2ccc(O)cc2)NC(=O)[C@H](CO)NC(=O)[C@H](CO)NC(=O)[C@@H](NC(=O)[C@H](CC(=O)O)NC(=O)[C@H](CO)NC(=O)[C@@H](NC(=O)[C@H](Cc2ccccc2)NC(=O)[C@@H](NC(=O)CNC(=O)[C@H](CCC(=O)O)NC(=O)C2(NC(=O)[C@@H](N)Cc3c[nH]cn3)COC2)[C@@H](C)O)[C@@H](C)O)C(C)C)COC1)C(=O)N[C@@H](C)C(=O)N[C@@H](Cc1c[nH]c2ccccc12)C(=O)N[C@@H](CC(C)C)C(=O)N[C@H](C(=O)N[C@@H](CCCNC(=N)N)C(=O)NCC(=O)N[C@@H](CCCNC(=N)N)C(=O)NCC(=O)O)C(C)C [NO: 5] (H-H[Ac4c(3-oxa)]EGTFTSDVSSYLE[Ac4c(3-oxa)]QAAK([AEEA-AEEA-γGlu-C18 diacid])EFIAWLVRGRG-OH) | 0.915 ± 0.126 nM
CC[C@H](NC(=O)[C@H](CCC(=O)O)NC(=O)[C@H](CC(C)C)NC(=O)[C@H](Cc1ccc(O)cc1)NC(=O)[C@H](CO)NC(=O)[C@H](CO)NC(=O)[C@@H](NC(=O)[C@H](CC(=O)O)NC(=O)[C@H](CO)NC(=O)[C@@H](NC(=O)[C@H](Cc1ccccc1)NC(=O)[C@@H](NC(=O)CNC(=O)[C@H](CCC(=O)O)NC(=O)[C@H](CC)NC(=O)[C@@H](N)Cc1c[nH]cn1)[C@@H](C)O)[C@@H](C)O)C(C)C)C(=O)N[C@@H](CCC(N)=O)C(=O)N[C@@H](C)C(=O)N[C@@H](C)C(=O)N[C@@H](CCCCNC(=O)COCCOCCNC(=O)COCCOCCNC(=O)CC[C@H](NC(=O)CCCCCCCCCCCCCCCCC(=O)O)C(=O)O)C(=O)N[C@@H](CCC(=O)O)C(=O)N[C@@H](Cc1ccccc1)C(=O)N[C@H](C(=O)N[C@@H](C)C(=O)N[C@@H](Cc1c[nH]c2ccccc12)C(=O)N[C@@H](CC(C)C)C(=O)N[C@H](C(=O)N[C@@H](CCCNC(=N)N)C(=O)NCC(=O)N[C@@H](CCCNC(=N)N)C(=O)NCC(=O)O)C(C)C)[C@@H](C)CC [NO: 7] (H-H[Abu]EGTFTSDVSSYLE[Abu]QAAK([AEEA-AEEA-γGlu-C18 diacid])EFIAWLVRGRG-OH) | 8.8 ± 1.41 nM
